One data set in a line: Mice PK study. The following applies: CD-1 mouse; oral dosing po, 10 mg/kg; plasma. In kind it is in vivo. How it is done:
The pharmacokinetics of compounds were evaluated in CD-1 mouse via Intravenous and Oral Administration. The IV dose was administered as a slow bolus in the Jugular vein, and oral doses were administered by gavage. The formulation for IV dosing was 5% DMSO in 20% HPBCD in water, and the PO formulation was 2.5% DMSO, 10% EtOH, 20% Cremphor EL, 67.5% D5W. The PK time point for the IV arm was 5, 15, 30 min, 1, 2, 4, 6, 8, 12, 24 hours post dose, and for PO arm was 15, 30 min, 1, 2, 4, 6, 8, 12, 24 hours post dose. Approximately 0.03 mL blood was collected at each time point. Blood of each sample was transferred into plastic micro centrifuge tubes containing EDTA-K2 and collect plasma within 15 min by centrifugation at 4000 g for 5 minutes in a 4° C. centrifuge. Plasma samples were stored in polypropylene tubes. The samples were stored in a freezer at −75±15° C. prior to analysis. Concentrations of compounds in the plasma samples were analyzed using a LC-MS/MS method. WinNonlin (Phoenix™, version 6.1) or other similar software was used for pharmacokinetic calculations. The following pharmacokinetic parameters were calculated, whenever possible from the plasma concentration versus time data: IV administration: C0, CL, Vd, T1/2, AUCinf, AUClast, MRT, Number of Points for Regression; PO administration: Cmax, Tmax, T1/2, AUCinf, AUClast, F %, Number of Points for Regression. […]

In data set [1] the test system is ATM-Deficient Colorectal Cancer LoVo Cell Lines. The experiment in a line: In vitro anti-proliferation assay (ATPlite luminescence). In kind it is cell-based. The following applies: Homo sapiens; LoVo cells; about 72 hours; 5% FBS. How it is done: Cell antiproliferation was assayed by PerkinElmer ATPlite™ Luminescence Assay System. Briefly, the various test cancer cell lines were plated at a density of about 1×10^4 cells per well in Costar 96-well plates, and were incubated with different concentrations of compounds for about 72 hours in medium supplemented with 5% FBS. One lyophilized substrate solution vial was then reconstituted by adding 5 mL of substrate buffer solution, and was agitated gently until the solution was homogeneous. About 50 μL of mammalian cell lysis solution was added to 100 μL of cell suspension per well of a microplate, and the plate was shaken for about five minutes in an orbital shaker at ˜700 rpm. This procedure was used to lyse the cells and to stabilize the ATP. Next, 50 μL substrate solution was added to the wells and microplate was shaken for five minutes in an orbital shaker at ˜700 rpm. Finally, the luminescence was measured by a PerkinElmer TopCount® Microplate Scintillation Counter. Such assays, carried out with a range of doses of test compounds, allowed the determination of the cellular anti-antiproliferative IC50 of the compounds of the present invention. The following table lists the IC50 values of several cancer cell lines (5% FBS) for certain compounds of the invention.
A general note: ATP-based viability assays read luminescence as a measure of living cells.

In another data set the target is ATR (Homo sapiens (Human), UniProt Q13535). The experiment in a line: Enzyme ATR in vitro enzyme assay (ELISA, phospho-Ser15 p53 substrate). In kind it is biochemical. The following applies: ATR immunoprecipitated from HeLa nuclear extract; GST-p53N66 substrate; ATP 3 μM; 37° C. Here is the method:
ATR for use in the in vitro enzyme assay was obtained from HeLa nuclear extract (CIL Biotech, Mons, Belgium) by immunoprecipitation with rabbit polyclonal antiserum raised to amino acids 400-480 of ATR (Tibbetts R S et al, 1999, Genes Dev. 13:152-157) contained in the following buffer (25 mM HEPES (pH7.4), 2 mM MgCl2, 250 mM NaCl, 0.5 mM EDTA, 0.1 mM Na3V04, 10% v/v glycerol, and 0.01% v/v Tween 20). ATR-antibody complexes were isolated from nuclear extract by incubating with protein A-Sepharose beads (Sigma, #P3476) for 1 hour and then through centrifugation to recover the beads. In the well of a 96-well plate, […] Sepharose beads were incubated with 1 μg of substrate glutathione S-transferase-p53N66 (NH2-terminal 66 amino acids of p53 fused to glutathione ^-transferase was expressed in E. coli) in ATR assay buffer (50 mM HEPES (pH 7.4), 150 mM NaCl, 6 mM MgCl2, 4 mM MnCl2, 0.1 mM Na3V04, 0.1 mM DTT, and 10% (v/v) glycerol) at 37° C. in the presence or absence of inhibitor. After 10 minutes with gentle shaking, ATP was added to a final concentration of 3 μM and the reaction continued at 37° C. for an additional 1 hour. The reaction was stopped by addition of IOOμí PBS and the reaction was transferred to a white opaque glutathione coated 96-well plate (NUNC #436033) and incubated overnight at 4° C. This plate was then washed with PBS/0.05%>(v/v) Tween 20, blotted dry, and analyzed by a standard ELISA (Enzyme-Linked Immunosorbent Assay) technique with a phospho-serine 15 p53 (16G78) antibody (Cell Signaling Technology, #9286). The detection of phosphorylated glutathione S-transferase-pSSNee substrate was performed in combination with a goat anti-mouse horseradish peroxidase-conjugated secondary antibody (Pierce, #31430). Enhanced chemiluminescence solution (NEN, Boston, Mass.) was used to produce a signal and chemiluminescent detection was carried out via a TopCount (Packard, Meriden, Conn.) plate reader.
(ELISA stands for enzyme-linked immunosorbent assay.)

The structures appear in SMILES notation.

Sequence of ATR (Q13535 whole entry, the tested form may be a part): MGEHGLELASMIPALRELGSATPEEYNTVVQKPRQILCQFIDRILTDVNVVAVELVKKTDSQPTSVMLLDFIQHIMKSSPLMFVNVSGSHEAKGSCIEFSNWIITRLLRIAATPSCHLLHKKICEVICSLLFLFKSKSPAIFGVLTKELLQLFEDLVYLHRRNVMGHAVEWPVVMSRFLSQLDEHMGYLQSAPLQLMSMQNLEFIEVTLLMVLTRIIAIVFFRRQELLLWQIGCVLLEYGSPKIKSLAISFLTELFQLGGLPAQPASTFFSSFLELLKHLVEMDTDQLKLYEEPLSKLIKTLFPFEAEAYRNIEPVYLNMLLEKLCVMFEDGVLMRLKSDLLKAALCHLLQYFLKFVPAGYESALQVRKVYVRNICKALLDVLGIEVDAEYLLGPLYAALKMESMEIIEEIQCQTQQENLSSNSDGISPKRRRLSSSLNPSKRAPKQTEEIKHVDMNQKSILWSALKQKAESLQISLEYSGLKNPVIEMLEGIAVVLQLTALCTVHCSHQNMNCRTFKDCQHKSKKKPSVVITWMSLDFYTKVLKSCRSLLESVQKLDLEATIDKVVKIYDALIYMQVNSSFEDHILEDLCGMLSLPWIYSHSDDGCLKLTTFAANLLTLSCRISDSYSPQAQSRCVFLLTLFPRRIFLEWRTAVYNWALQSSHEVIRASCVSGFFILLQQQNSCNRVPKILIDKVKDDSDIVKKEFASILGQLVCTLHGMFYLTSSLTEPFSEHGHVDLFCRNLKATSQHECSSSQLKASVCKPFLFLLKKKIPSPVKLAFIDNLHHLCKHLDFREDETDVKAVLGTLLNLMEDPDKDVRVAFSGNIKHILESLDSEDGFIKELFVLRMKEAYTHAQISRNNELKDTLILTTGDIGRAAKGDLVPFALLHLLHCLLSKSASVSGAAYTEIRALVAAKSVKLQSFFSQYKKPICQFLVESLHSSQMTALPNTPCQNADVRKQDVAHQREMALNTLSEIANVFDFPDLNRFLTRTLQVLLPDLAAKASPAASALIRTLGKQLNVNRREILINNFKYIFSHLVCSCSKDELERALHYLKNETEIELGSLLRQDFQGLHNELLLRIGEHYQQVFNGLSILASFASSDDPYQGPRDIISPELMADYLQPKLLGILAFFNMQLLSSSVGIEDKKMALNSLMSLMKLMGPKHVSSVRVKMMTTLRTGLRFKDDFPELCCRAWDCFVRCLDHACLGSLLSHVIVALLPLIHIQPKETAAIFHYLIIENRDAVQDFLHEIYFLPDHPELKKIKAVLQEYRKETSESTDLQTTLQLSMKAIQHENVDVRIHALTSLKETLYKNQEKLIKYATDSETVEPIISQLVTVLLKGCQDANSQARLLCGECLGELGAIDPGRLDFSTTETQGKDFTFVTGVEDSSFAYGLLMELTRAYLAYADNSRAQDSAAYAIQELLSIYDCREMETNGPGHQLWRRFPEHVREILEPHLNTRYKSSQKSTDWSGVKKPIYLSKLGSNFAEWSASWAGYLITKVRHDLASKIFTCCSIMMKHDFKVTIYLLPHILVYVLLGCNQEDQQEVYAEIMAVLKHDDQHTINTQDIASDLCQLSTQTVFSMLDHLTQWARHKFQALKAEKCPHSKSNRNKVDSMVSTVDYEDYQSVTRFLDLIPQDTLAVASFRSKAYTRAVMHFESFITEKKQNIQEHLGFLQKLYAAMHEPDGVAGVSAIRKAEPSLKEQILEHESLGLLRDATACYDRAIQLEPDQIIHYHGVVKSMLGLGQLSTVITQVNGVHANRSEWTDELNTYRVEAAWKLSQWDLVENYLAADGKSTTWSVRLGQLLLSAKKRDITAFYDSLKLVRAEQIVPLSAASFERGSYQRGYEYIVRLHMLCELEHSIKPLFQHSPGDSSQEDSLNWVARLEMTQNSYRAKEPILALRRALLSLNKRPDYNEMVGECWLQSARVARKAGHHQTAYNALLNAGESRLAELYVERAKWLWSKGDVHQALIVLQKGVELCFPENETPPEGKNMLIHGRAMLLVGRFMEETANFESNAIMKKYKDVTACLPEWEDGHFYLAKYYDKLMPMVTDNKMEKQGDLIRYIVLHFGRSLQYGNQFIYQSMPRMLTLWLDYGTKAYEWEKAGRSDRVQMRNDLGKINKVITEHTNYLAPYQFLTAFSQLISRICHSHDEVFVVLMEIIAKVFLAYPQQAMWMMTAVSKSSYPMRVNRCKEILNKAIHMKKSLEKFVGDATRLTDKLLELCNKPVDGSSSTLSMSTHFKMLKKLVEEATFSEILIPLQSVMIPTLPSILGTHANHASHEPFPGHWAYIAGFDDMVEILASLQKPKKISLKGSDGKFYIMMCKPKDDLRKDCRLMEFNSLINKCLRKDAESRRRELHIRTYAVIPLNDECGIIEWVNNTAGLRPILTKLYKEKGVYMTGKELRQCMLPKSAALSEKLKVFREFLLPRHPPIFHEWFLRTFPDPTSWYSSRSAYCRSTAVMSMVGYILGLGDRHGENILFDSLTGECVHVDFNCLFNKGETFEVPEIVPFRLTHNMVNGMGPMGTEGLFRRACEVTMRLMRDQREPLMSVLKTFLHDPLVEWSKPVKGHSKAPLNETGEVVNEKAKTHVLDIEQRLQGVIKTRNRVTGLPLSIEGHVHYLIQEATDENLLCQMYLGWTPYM
Sequence of ATR (Q8WXE1 whole entry partner, the tested form may be a part): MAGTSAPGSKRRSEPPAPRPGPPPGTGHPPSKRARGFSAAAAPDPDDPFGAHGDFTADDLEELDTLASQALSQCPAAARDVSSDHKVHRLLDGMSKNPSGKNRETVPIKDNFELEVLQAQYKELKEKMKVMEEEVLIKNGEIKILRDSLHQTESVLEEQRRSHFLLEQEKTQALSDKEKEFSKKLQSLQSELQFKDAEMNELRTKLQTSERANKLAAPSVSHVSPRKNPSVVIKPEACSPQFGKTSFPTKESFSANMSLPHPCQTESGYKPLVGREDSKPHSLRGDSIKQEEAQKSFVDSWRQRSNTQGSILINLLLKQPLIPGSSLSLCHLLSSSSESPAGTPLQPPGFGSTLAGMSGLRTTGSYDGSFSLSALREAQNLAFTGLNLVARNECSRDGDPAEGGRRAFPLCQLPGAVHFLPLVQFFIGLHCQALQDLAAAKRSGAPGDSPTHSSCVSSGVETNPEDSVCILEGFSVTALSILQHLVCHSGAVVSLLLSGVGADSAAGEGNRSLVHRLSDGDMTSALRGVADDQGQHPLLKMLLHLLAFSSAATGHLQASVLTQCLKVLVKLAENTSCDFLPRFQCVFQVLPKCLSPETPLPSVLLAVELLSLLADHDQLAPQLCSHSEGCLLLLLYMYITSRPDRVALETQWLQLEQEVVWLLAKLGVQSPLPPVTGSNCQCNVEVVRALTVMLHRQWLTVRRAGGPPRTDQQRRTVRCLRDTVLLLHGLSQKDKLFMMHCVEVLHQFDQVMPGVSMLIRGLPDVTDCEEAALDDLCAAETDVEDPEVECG

Consider `C[C@@H]1COCCN1c1cc(C2([S@](C)(=N)=O)CC2)nc(-c2cc[nH]c3nccc2-3)n1` [AZD-6738, reference compound], for which the AUC(0-t) (usually the area under the concentration-time curve up to a stated or last time point) in “Mice PK study” was determined as 3100 ng·h/mL. Also, the IC50 (as a rule, the concentration that inhibits the measured activity by half) in data set [1] amounted to 800 nM.
Take `CN=S(C)(=O)C1(c2cc(N3CCOC[C@H]3C)nc(-c3ccnc4[nH]ccc34)n2)CC1` (stereo partly drawn) [CY-200-1, Methyl[methyl(1-[6-[(3R)-3-methylmorpholin-4-yl]-2-[1H-pyrrolo[2,3-b]pyridin-4-yl]pyrimidin-4-yl]cyclopropyl)oxo-lambda-sulfanylidene]amine]: on ATR, the IC50 is less than 3 nM.
Same read-out and setting: in the case of `[2H]C([2H])([2H])N=S(C)(=O)C1(c2cc(N3CCOC[C@H]3C)nc(-c3ccnc4[nH]ccc34)n2)CC1` (stereo partly drawn) [CY-209, (2H3)methyl[methyl(1-[6-[(3R)-3-methylmorpholin-4-yl]-2-[1H-pyrrolo[2,3-b]pyridin-4-yl]pyrimidin-4-yl]cyclopropyl)oxo-lambda6-sulfanylidene]amine] it was less than 3 nM.
Same read-out and setting: as for `C[C@@H]1COCCN1c1cc(C(C)(C)O)nc(-c2ccnc3[nH]ccc23)n1` [CY-212, 2-[6-[(3R)-3-methylmorpholin-4-yl]-2-[1H-pyrrolo[2,3-b]pyridin-4-yl]pyrimidin-4-yl]propan-2-ol], the figure is less than 3 nM.
Take `C[C@@H]1COCCN1c1cc(C(C)(C)C#N)nc(-c2ccnc3[nH]ccc23)n1` [CY-237, 2-methyl-2-[6-[(3R)-3-methylmorpholin-4-yl]-2-[1H-pyrrolo[2,3-b]pyridin-4-yl]pyrimidin-4-yl]propanenitrile]: the IC50 at ATR is less than 3 nM; in data set [1], 480 nM. For the same compound, in the data set “Mice PK study”, the AUC(0-t) was 4390 ng·h/mL.
`C[C@@H]1COCCN1c1cc(NCC2CC(F)(F)C2)nc(-c2ccnc3[nH]ccc23)n1` [CY-249, N-[(3,3-difluorocyclobutyl)methyl]-6-[(3R)-3-methylmorpholin-4-yl]-2-[1H-pyrrolo[2,3-b]pyridin-4-yl]pyrimidin-4-amine]: the IC50 at ATR was less than 3 nM; in data set [1] it was 510 nM.
For `C[C@@H]1COCCN1c1cc(C(C)(O)C(F)(F)F)nc(-c2ccnc3[nH]ccc23)n1` (stereo partly drawn) [CY-257, 1,1,1-trifluoro-2-[6-[(3R)-3-methylmorpholin-4-yl]-2-[1H-pyrrolo[2,3-b]pyridin-4-yl]pyrimidin-4-yl]propan-2-ol], in that order: less than 3 nM and 830 nM.

The values are drawn from US11236089B2, “Substituted pyrrolopyridines as ATR inhibitors” (BlueValley Pharmaceutical LLC, priority 2017, dated 2022).
